In ChEMBL document CHEMBL3763073 (Eur J Med Chem, 2016):

Columns and labels:
Oxytocin receptor [1] = biological target: T1, Oxytocin receptor (Homo sapiens, UniProt P30559); test: Antagonist activity at human oxytocin receptor expressed in HEK293 cells assessed as inhibition of oxytocin induced IP1 accumulation pretreated for 30 mins measured 1 hr post Ab-Cryptate and IP1-d2 addition by HTRF assay; assay type: functional, cell-based
T1 sequence (P30559 whole entry): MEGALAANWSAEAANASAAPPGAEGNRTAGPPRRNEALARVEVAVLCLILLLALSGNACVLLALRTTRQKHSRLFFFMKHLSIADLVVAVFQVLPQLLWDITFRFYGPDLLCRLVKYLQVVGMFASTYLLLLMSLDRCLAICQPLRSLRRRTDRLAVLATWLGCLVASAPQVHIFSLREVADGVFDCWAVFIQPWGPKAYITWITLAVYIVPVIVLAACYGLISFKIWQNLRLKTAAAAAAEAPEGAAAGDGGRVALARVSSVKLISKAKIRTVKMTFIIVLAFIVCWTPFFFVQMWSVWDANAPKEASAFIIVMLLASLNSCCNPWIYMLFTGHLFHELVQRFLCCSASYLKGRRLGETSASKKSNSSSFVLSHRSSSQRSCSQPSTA

Oxytocin receptor [2] = biological target: T1, Oxytocin receptor; test: Displacement of [3H]-oxytocin from human oxytocin receptor expressed in HEK293 cells after 90 mins by microbeta 2 microplate reader analysis; assay type: cell-based
Vasopressin V1a receptor [3] = biological target: T2, Vasopressin V1a receptor (Homo sapiens, UniProt P37288); test: Agonist activity at human vasopressin 1a receptor expressed in HEK293 cells assessed as increase in IP1 accumulation preincubated for 1 hr followed by addition of Ab-Cryptate and IP1-d2 by HTRF assay; assay type: functional, cell-based
T2 sequence (P37288 whole entry): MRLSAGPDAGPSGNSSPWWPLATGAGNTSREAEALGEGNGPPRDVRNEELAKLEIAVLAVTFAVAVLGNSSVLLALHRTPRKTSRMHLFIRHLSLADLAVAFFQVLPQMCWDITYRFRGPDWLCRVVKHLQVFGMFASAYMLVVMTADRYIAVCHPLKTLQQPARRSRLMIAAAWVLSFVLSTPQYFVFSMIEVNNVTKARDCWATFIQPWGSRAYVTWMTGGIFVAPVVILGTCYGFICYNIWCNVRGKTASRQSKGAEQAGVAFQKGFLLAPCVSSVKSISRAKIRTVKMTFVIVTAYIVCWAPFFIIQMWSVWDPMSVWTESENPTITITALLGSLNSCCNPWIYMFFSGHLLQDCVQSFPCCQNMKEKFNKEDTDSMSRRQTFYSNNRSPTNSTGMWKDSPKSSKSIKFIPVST

Vasopressin V1a receptor [4] = biological target: T2, Vasopressin V1a receptor; test: Antagonist activity at human vasopressin 1a receptor expressed in HEK293 cells assessed as inhibition of vasopressin induced IP1 accumulation pretreated for 30 mins measured 1 hr post Ab-Cryptate and IP1-d2 addition by HTRF assay; assay type: functional, cell-based
Oxytocin receptor [5] = biological target: T1, Oxytocin receptor; test: Agonist activity at human oxytocin receptor expressed in HEK293 cells assessed as increase in IP1 accumulation preincubated for 1 hr followed by addition of Ab-Cryptate and IP1-d2 by HTRF assay; assay type: functional, cell-based
Vasopressin V1a receptor [6] = biological target: T2, Vasopressin V1a receptor; test: Displacement of [3H]-vasopressin from human vasopressin 1a receptor expressed in HEK293 cells after 90 mins by microbeta 2 microplate-reader method; assay type: cell-based

Compound | IC50 (Oxytocin receptor [1]) [µM] | Ki (Oxytocin receptor [2]) [µM] | EC50 (Vasopressin V1a receptor [3]) [µM] | IC50 (Vasopressin V1a receptor [4]) [µM] | EC50 (Oxytocin receptor [5]) [µM] | Ki (Vasopressin V1a receptor [6]) [µM]
COc1cc(CN2CCN(CCCCC(=O)N3Cc4cnn(C)c4Nc4ccccc43)CC2)cc(OC)c1 | > 10 | > 10 | > 10 | > 10 | > 10 | 0.409
Cn1ncc2c1Nc1ccccc1N(C(=O)CCCCN1CCN(Cc3cc(O)cc(O)c3)CC1)C2 | > 10 | > 10 | > 10 | > 10 | > 10 | 0.466
COc1cc(CN2CCN(C(=O)NCc3ccc(C(=O)N4Cc5cnn(C)c5Nc5ccccc54)cc3C)CC2)cc(OC)c1 | 4.13 | 0.801 | > 10 | 1.11 | > 10 | 0.062
COc1cc(CN2CCN(CCCCCC(=O)N3Cc4cnn(C)c4Nc4ccccc43)CC2)cc(OC)c1 | > 10 | 7.45 | > 10 | 8.2 | > 10 | 0.266
Cn1ncc2c1Nc1ccccc1N(C(=O)CCCCCCCN1CCN(Cc3cc(O)cc(O)c3)CC1)C2 | > 10 | 8.35 | > 10 | 4.67 | > 10 | 0.064
COc1cc(CN2CCN(CCCCCCCC(=O)N3Cc4cnn(C)c4Nc4ccccc43)CC2)cc(OC)c1 | > 10 | > 10 | > 10 | 7.67 | > 10 | 0.248
Cn1ncc2c1Nc1ccccc1N(C(=O)CCCCCCN1CCN(Cc3cc(O)cc(O)c3)CC1)C2 | > 10 | > 10 | > 10 | > 10 | > 10 | 0.13
Cn1ncc2c1Nc1ccccc1N(C(=O)CCCCCN1CCN(Cc3cc(O)cc(O)c3)CC1)C2 | > 10 | > 10 | > 10 | > 10 | > 10 | 0.449
COc1cc(CN2CCN(CCCCCCC(=O)N3Cc4cnn(C)c4Nc4ccccc43)CC2)cc(OC)c1 | > 10 | > 10 | > 10 | > 10 | > 10 | 0.195
